Reference: PubChem BioAssay (NCI)
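Protocol summary: plate cells (96-well), add compound at 5 concentrations, incubate 48 h, interpolate endpoints linearly. TGI: total growth inhibition.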

Columns and labels:
Assay in all cases: DTP human tumour cell line panel, 48 h
786-0 renal = tested on: 786-0 renal
NCI-H226 lung = tested on: NCI-H226 lung
SK-MEL-2 melanoma = tested on: SK-MEL-2 melanoma
UACC-257 melanoma = tested on: UACC-257 melanoma
SNB-19 CNS = tested on: SNB-19 CNS
BT-549 breast = tested on: BT-549 breast
SK-MEL-28 melanoma = tested on: SK-MEL-28 melanoma
T-47D breast = tested on: T-47D breast
UO-31 renal = tested on: UO-31 renal
TK-10 renal = tested on: TK-10 renal
CCRF-CEM leukemia = tested on: CCRF-CEM leukemia
LOX IMVI melanoma = tested on: LOX IMVI melanoma
OVCAR-8 ovarian = tested on: OVCAR-8 ovarian
HL-60(TB) leukemia = tested on: HL-60(TB) leukemia
SF-539 CNS = tested on: SF-539 CNS
IGROV1 ovarian = tested on: IGROV1 ovarian
HT29 colon = tested on: HT29 colon
U251 CNS = tested on: U251 CNS
MDA-N = tested on: MDA-N
HOP-62 NSCLC = tested on: HOP-62 NSCLC
MCF7 breast = tested on: MCF7 breast
OVCAR-4 ovarian = tested on: OVCAR-4 ovarian
PC-3 prostate = tested on: PC-3 prostate
UACC-62 melanoma = tested on: UACC-62 melanoma
HCT-116 colon = tested on: HCT-116 colon
MDA-MB-435 = tested on: MDA-MB-435
MOLT-4 leukemia = tested on: MOLT-4 leukemia
SW-620 colon = tested on: SW-620 colon
SN12C renal = tested on: SN12C renal
OVCAR-5 ovarian = tested on: OVCAR-5 ovarian
K-562 leukemia = tested on: K-562 leukemia
A549 NSCLC = tested on: A549 NSCLC
HS 578T breast = tested on: HS 578T breast
DU-145 prostate = tested on: DU-145 prostate
SK-MEL-5 melanoma = tested on: SK-MEL-5 melanoma
SF-295 CNS = tested on: SF-295 CNS
MALME-3M melanoma = tested on: MALME-3M melanoma
NCI-H522 lung = tested on: NCI-H522 lung
NCI/ADR-RES ovarian = tested on: NCI/ADR-RES ovarian
KM12 colon = tested on: KM12 colon
NCI-H460 lung = tested on: NCI-H460 lung
EKVX NSCLC = tested on: EKVX NSCLC
M14 melanoma = tested on: M14 melanoma
OVCAR-3 ovarian = tested on: OVCAR-3 ovarian
HCT-15 colon = tested on: HCT-15 colon
ACHN renal = tested on: ACHN renal
HOP-92 NSCLC = tested on: HOP-92 NSCLC
NCI-H23 lung = tested on: NCI-H23 lung
SF-268 CNS = tested on: SF-268 CNS
SR leukemia = tested on: SR leukemia
MDA-MB-231 breast = tested on: MDA-MB-231 breast
SNB-75 CNS = tested on: SNB-75 CNS
HCC-2998 colon = tested on: HCC-2998 colon
CAKI-1 renal = tested on: CAKI-1 renal
RXF 393 renal = tested on: RXF 393 renal
SK-OV-3 ovarian = tested on: SK-OV-3 ovarian
COLO 205 colon = tested on: COLO 205 colon
A498 renal = tested on: A498 renal

Measured: TGI

COc1nc(=O)n(C2CC(N=[N+]=[N-])C(CO)O2)cc1C (stereo not drawn)
not listed: SNB-75 CNS | HCC-2998 colon | CAKI-1 renal | RXF 393 renal | SK-OV-3 ovarian | COLO 205 colon | A498 renal
> 100 µM: all other assays above

Nc1c(C(=O)c2ccccc2)[nH]c(NCc2ccccc2)c1C(=S)Nc1ccccc1
not listed: PC-3 prostate
> 100 µM: all other assays above
